From patent US10189863B2, “5,6-dihydro-4H-benzo[b]thieno-[2,3-d]azepine derivatives” (PULMOCIDE LIMITED, priority 2014, dated 2019)
Read-outs that look alike come from different tables or passages of the source.

What was measured:
RSV A2 strain = experiment: Assessment of RSV induced CPE in HEp2 cells (RSV A2 strain); format: cell-based; conditions: human respiratory syncytial virus; for IC50: HEp-2, 120 h; for inhibition at 0.01 µg/mL: Inhibition (%) at 0.01 μg/mL
How it was run: (§1)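 HEp2 cells were infected at MOI 1 with RSV A2 or RSV B Washington, with compound added at the same time (0.5% DMSO final). Incubation was 5 days for A2 and 6 days for B, then viability was read by resazurin fluorescence (545/590 nm) after 6 h. IC50, IC75 and IC90 came from concentration-response curves.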

RSV B Washington strain = experiment: Assessment of RSV induced CPE in HEp2 cells (RSV B Washington strain); format: cell-based; conditions: human respiratory syncytial virus; for IC50: HEp-2, 144 h; for inhibition at 0.1 µg/mL: Inhibition (%) at 0.1 μg/mL
How it was run: as §1

[1] = Cell viability: resazurin assay; format: cell-based, human; conditions: human, HEp2 cells
How it was run: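 Viability read-out: resazurin fluorescence (ex 545, em 590 nm) after 6 h, following 5-day compound incubation of HEp2 cells (37 °C, 5% CO2, 5% FBS, 0.5% DMSO final). Loss expressed as percentage of vehicle, negative if viability rose; CC50 derived from concentration-response curve where appropriate.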

[2] = HEp2 cells, 1 MOI, 5 days, read-out: RSV A2 CPE IC50
[3] = HEp2 cells, 1 MOI, 6 days, read-out: RSV B CPE IC50
[4] = HEp-2, HEp2 cells, Inhibition (%) at 1 μg/mL, read-out: RSV B CPE % Inhibition
[5] = HEp-2, HEp2 cells, Inhibition (%) at 0.1 μg/mL, read-out: RSV A2 CPE % Inhibition

SMILES	IC50 (RSV A2 strain; [2])	inhibition at 0.01 µg/mL (RSV A2 strain; HEp-2, HEp2 cells)	IC50 (RSV B Washington strain; [3])	inhibition at 0.1 µg/mL (RSV B Washington strain; HEp-2, HEp2 cells)	CC50 at 5 days [1]	inhibition at 1 µg/mL (RSV B Washington strain; [4])	inhibition at 0.1 µg/mL (RSV A2 strain; [5])	IC50 (RSV A2 strain; read-out: RSV A2 CPE IC50 (nM))	inhibition at 0.1 µg/mL (RSV A2 strain; HEp-2, read-out: RSV A2 CPE % Inhibition)	IC50 (RSV B Washington strain; read-out: RSV B CPE IC50 (nM))	inhibition at 1 µg/mL (RSV B Washington strain; HEp-2, read-out: RSV B CPE % Inhibition)
Cc1cccc(F)c1NC(=O)c1cc2c(s1)-c1ccccc1N(C(=O)c1ccc(NC(=O)c3cc4sccc4nc3N3CC4(CCOCC4)C3)cc1)CC2 [Example 89, 6-(4-(5-(7-oxa-2-azaspiro[3.5]nonan-2-yl)thieno[3,2-b]pyridine-6-carboxamido)benzoyl)-N-(2-fluoro-6-methyl-phenyl)-5,6-dihydro-4H-benzo[b]thieno[2,3-d]azepine-2-carboxamide]	0.5 nM	100%	19.4 nM	100%	> 13200 nM	–	–	–	–	–	–
O=C(Nc1c(F)cccc1F)c1cc2c(s1)-c1ccccc1N(C(=O)c1ccc(NC(=O)c3cc4sccc4nc3N3CC4(CCOCC4)C3)cc1)CC2 [Example 13, 6-(4-(5-(7-Oxa-2-azaspiro[3.5]nonan-2-yl)thieno[3,2-b]pyridine-6-carboxamido)benzoyl)-N-(2,6-difluorophenyl)-5,6-dihydro-4H-benzo[b]thieno[2,3-d]azepine-2-carboxamide]	0.45 nM	100%	0.96 nM	–	> 13100 nM	100%	–	–	–	–	–
Cc1cccc(F)c1NC(=O)c1cc2c(s1)-c1ccccc1N(C(=O)c1ccc(NC(=O)c3cc4c(nc3N3CC5(CCOCC5)C3)CCC4)cc1F)CC2 [Example 78, 6-(4-(2-(7-oxa-2-azaspiro[3.5]nonan-2-yl)-6,7-dihydro-5H-cyclopenta[b]pyridine-3-carboxamido)-2-fluorobenzoyl)-N-(2-fluoro-6-methylphenyl)-5,6-dihydro-4H-benzo[b]thieno [2,3-d]azepine-2-carboxamide]	2.4 nM	89%	1.3 nM	–	> 13200 nM	94%	–	–	–	–	–
Cc1cccc(F)c1NC(=O)c1cc2c(s1)-c1ccccc1N(C(=O)c1ccc(NC(=O)c3cc(Cl)cnc3N3CC4(CCOCC4)C3)cc1)CC2 [Example 69, 6-(4-(5-chloro-2-(7-oxa-2-azaspiro[3.5]nonan-2-yl)nicotinamido)benzoyl)-N-(2-fluoro-6-methylphenyl)-5,6-dihydro-4H-benzo[b]thieno[2,3-d]azepine-2-carboxamide]	0.45 nM	96%	15.3 nM	–	> 13600 nM	100%	–	–	–	–	–
CCc1cnc(N2CC3(CCOCC3)C2)c(C(=O)Nc2ccc(C(=O)N3CCc4cc(C(=O)Nc5c(C)cccc5F)sc4-c4ccccc43)cc2)c1 [Example 60, 6-(4-(5-ethyl-2-(7-oxa-2-azaspiro[3.5]nonan-2-yl)nicotinamido)benzoyl)-N-(2-fluoro-6-methylphenyl)-5,6-dihydro-4H-benzo[b]thieno[2,3-d]azepine-2-carboxamide]	0.14 nM	–	9.5 nM	–	> 13700 nM	100%	92%	–	–	–	–
O=C(Nc1c(F)cccc1F)c1cc2c(s1)-c1ccccc1N(C(=O)c1ccc(NC(=O)c3cccnc3N3CC4(CCOCC4)C3)cc1)CC2 [Example 19, 6-(4-(2-(7-oxa-2-azaspiro[3.5]nonan-2-yl)nicotinamido)benzoyl)-N-(2,6-difluorophenyl)-5,6-dihydro-4H-benzo[b] thieno[2,3-d]azepine-2-carboxamide]	0.14 nM	–	28 nM	100%	> 14200 nM	–	88%	–	–	–	–
Cc1cnc(N2CC3(CCOCC3)C2)c(C(=O)Nc2ccc(C(=O)N3CCc4cc(C(=O)Nc5c(C)cccc5Cl)sc4-c4ccccc43)cc2)c1 [Example 56, N-(2-chloro-6-methylphenyl)-6-(4-(5-methyl-2-(7-oxa-2-azaspiro[3.5]nonan-2-yl)nicotinamido)benzoyl)-5,6-dihydro-4H-benzo[b]thieno[2,3-d]azepine-2-carboxamide]	0.14 nM	–	4.1 nM	–	> 13700 nM	89%	94%	–	–	–	–
COc1cnc(N2CC3(CCOCC3)C2)c(C(=O)Nc2ccc(C(=O)N3CCc4cc(C(=O)Nc5c(C)cccc5F)sc4-c4ccccc43)cc2)c1 [Example 71, N-(2-fluoro-6-methylphenyl)-6-(4-(5-methoxy-2-(7-oxa-2-azaspiro[3.5]nonan-2-yl)nicotinamido)benzoyl)-5,6-di-hydro-4H-benzo[b]thieno[2,3-d]azepine-2-carboxamide]	0.61 nM	100%	15.5 nM	100%	> 13700 nM	–	–	–	–	–	–
O=C(Nc1ccccc1)c1cc2c(s1)-c1ccccc1N(C(=O)c1ccc(NC(=O)c3cccnc3N3CC4(CCOCC4)C3)cc1)CC2 [Example 1, 6-(4-(2-(7-oxa-2-azaspiro[3.5]nonan-2-yl)nicotinamido)benzoyl)-N-phenyl-5,6-dihydro-4H-benzo[b]thieno[2,3-d]azepine-2-carboxamide]	–	–	–	–	> 14900 nM	–	–	0.5 nM	98%	166 nM	77%
Cc1cnc(N2CC3(CCOCC3)C2)c(C(=O)Nc2ccc(C(=O)N3CCc4cc(C(=O)Nc5c(F)cc(F)cc5F)sc4-c4ccccc43)cc2)c1 [Example 48, 6-(4-(5-methyl-2-(7-oxa-2-azaspiro[3.5]nonan-2-yl)nicotinamido)benzoyl)-N-(2,4,6-trifluorophenyl)-5,6-dihydro-4H-benzo[b]thieno[2,3-d]azepine-2-carboxamide]	0.14 nM	–	1.5 nM	–	> 13600 nM	100%	100%	–	–	–	–
O=C(Nc1c(F)cccc1F)c1cc2c(s1)-c1ccccc1N(C(=O)c1ccc(NC(=O)c3cc(C4CC4)cnc3N3CC4(CCOCC4)C3)cc1)CC2 [Example 72, 6-(4-(5-cyclopropyl-2-(7-oxa-2-azaspiro[3.5]nonan-2-yl)nicotinamido)benzoyl)-N-(2,6-difluorophenyl)-5,6-dihydro-4H-benzo[b]thieno[2,3-d]azepine-2-carboxamide]	0.32 nM	100%	3.3 nM	–	> 13400 nM	89%	–	–	–	–	–
O=C(Nc1c(F)cccc1F)c1cc2c(s1)-c1ccccc1N(C(=O)c1ccc(NC(=O)c3cc4ccccc4nc3N3CC4(CCOCC4)C3)cc1)CC2 [Example 86, 6-(4-(2-(7-oxa-2-azaspiro[3.5]nonan-2-yl)quinoline-3-carboxamido)benzoyl)-N-(2,6-difluorophenyl)-5,6-dihydro-4H-benzo[b]thieno[2,3-d]azepine-2-carboxamide]	0.17 nM	85%	23 nM	100%	> 13200 nM	–	–	–	–	–	–
O=C(Nc1ccc(F)cc1F)c1cc2c(s1)-c1ccccc1N(C(=O)c1ccc(NC(=O)c3cccnc3N3CC4(CCOCC4)C3)cc1)CC2 [Example 20, 6-(4-(2-(7-oxa-2-azaspiro[3.5]nonan-2-yl)nicotinamido)benzoyl)-N-(2,4-difluorophenyl)-5,6-dihydro-4H-benzo[b] thieno[2,3-d]azepine-2-carboxamide]	0.36 nM	–	129 nM	–	> 14200 nM	80%	100%	–	–	–	–
Cc1cnc(N2CC3(COC3)C2)c(C(=O)Nc2ccc(C(=O)N3CCc4cc(C(=O)Nc5c(C)cccc5F)sc4-c4ccccc43)cc2)c1 [Example 90, N-(2-fluoro-6-methylphenyl)-6-(4-(5-methyl-2-(2-oxa-6-azaspiro[3.3]heptan-6-yl)nicotinamido)benzoyl)-5,6-dihydro-4H-benzo[b]thieno[2,3-d]azepine-2-carboxamide]	1.8 nM	100%	508 nM	–	> 14500 nM	99%	–	–	–	–	–
Cc1ccc(C(=O)Nc2ccc(C(=O)N3CCc4cc(C(=O)Nc5c(C)cccc5F)sc4-c4ccccc43)cc2)c(N2CC3(CCOCC3)C2)n1 [Example 40, N-(2-fluoro-6-methylphenyl)-6-(4-(6-methyl-2-(7-oxa-2-azaspiro[3.5]nonan-2-yl)nicotinamido)benzoyl)-5,6-dihydro-4H-benzo[b]thieno[2,3-d]azepine-2-carboxamide]	0.15 nM	–	41.3 nM	–	> 14000 nM	80%	100%	–	–	–	–
C=Cc1cccc(F)c1NC(=O)c1cc2c(s1)-c1ccccc1N(C(=O)c1ccc(NC(=O)c3cc(C)cnc3N3CC4(CCOCC4)C3)cc1)CC2 [Example 36, N-(2-fluoro-6-vinylphenyl)-6-(4-(5-methyl-2-(7-oxa-2-azaspiro[3.5]nonan-2-yl)nicotinamido)benzoyl)-5,6-dihydro-4H-benzo[b]thieno[2,3-d]azepine-2-carboxamide]	0.16 nM	95%	13.4 nM	–	> 13700 nM	99%	–	–	–	–	–
